Data from patent publication US4260630A, “Skin diseases” (priority 1977, dated 1981).

Key:
[1] = Intraperitoneal toxicity in mice; type: in vivo; details: i.p., 36 injections of 0.4 mg over 7 weeks
Protocol: (§1) 3-CPs was also tested intraperitoneally (36 injections of 0.4 mg each over a period of 7 weeks).

cutaneous tissue = details: in vivo; cited from earlier work
[2] = Light sensitivity of the drug in aqueous solution (chromatography, fluorescence spectra); type: physicochemical
Saccharomyces cerevisiae = assay: Uptake and removal of the drug in yeast (incubation time, washing); type: cell-based
Protocol: B--Effects of 365 nm light alone or 3-CPs, uptake and removal of the drug.
Since high doses of 365 nm light are needed to induce a killing effect in Saccharomyces cells in the presence of 3-CPs, the effects of 365 nm light alone were measured for doses up to 7500 J/m^2. It was established that, in the range of doses used for the biological experiments, there was only a small lethal effect of 365 nm light alone. Taking into account the standard errors of the surviving fraction (±10%) and the fact that part of the light energy is absorbed by the drug itself, the effect of 365 nm light alone has been neglected in the experiments.

psoriasis lesions = assay: Treatment of psoriasis patients, 1% 3-CPs ointment plus 365 nm UV; type: in vivo; details: 1% ointment
Protocol: The effectiveness of thus-obtained 3-CPs was tested on 10 patients having ordinary psoriasis covering from 200 to 400 cm^2 of skin.
Preparation of 1% 3-CPs ointment:
1 g of 3-CPs was ground to a very fine powder and then dispersed in 70 g of "HYDROCERINE" (a commercially-available product manufactured by ROC) at 70° C. 29 ml of water were added at 70° C. in order to obtain an aqueous emulsion in oil.
The irradiation dose at 365 nm UV was of about 5 J/cm^2 per unit treatment and administered using the usual PUVA therapy set-up.

[3] = tested on: skin of homozygote albino mice strain XVII nc/Z; assay: Chronic topical application on the ears of mice plus 365 nm UV irradiation (tumors, skin reactions); type: in vivo
Protocol: The experiments were effected on groups of 40 mice, male and female.
After 115 topical applications of psoralen, followed each time by 10 minutes of irradiation (cumulative doses of 2.07×10^6 J/m^2), 100% of the animals developed a tumor; 50% having tumors on two ears.
as §1
In all these experiments the U.V. lamp was of the type of HPW 125 W, manufactured by Philips.

skin [4] = details: short treatment intervals; cited from earlier work
lymphocytes = details: therapeutic treatment; cited from earlier work
skin [5] = assay: Erythema, skin injury and tanning on skin of patients; type: in vivo; details: compared with 8-MOP
Excerpt: In contrast, it has now been discovered that the mono-functional derivatives of formula I provoke absolutely no erythema, neither immediate nor postponed. No skin injury, neither macro- nor microscopic, was observed on patients. It will be readily apparent to men skilled in the art that this property is a very unique one for compounds of the psoralen family. […] Thus, undesirable cosmetic side effects appear to be absent. Consequently, these compounds are of great interest since, in contrast to 8-MOP, they permit subsequent treatment at short-time intervals for example twice a day over prolonged periods of time without any sun-burnlike injury to the skin.

mice = details: hairless mice; cited from earlier work

**Q.** For `CCOC(=O)c1cc2cc3ccoc3cc2oc1=O` [Example 3-CPs, 3-carboethoxypsoralen], which survival [1] is on record?
**A.** All the animals remained alive

**Q.** And the “weight and signs of toxicity” value [1]?
**A.** without any decrease in weight or other sign of toxicity

**Q.** And the photosensitizing activity (cutaneous tissue)?
**A.** completely inactive

**Q.** What about the light sensitivity [2] of the same molecule?
**A.** light sensitive

**Q.** And the photoproduct ([2]; illuminated aqueous solutions)?
**A.** highly fluorescent photoproduct with the characteristics of 4',5'-dihydropsoralen

**Q.** And the “binding in the dark” value (Saccharomyces cerevisiae)?
**A.** very loosely bound in the dark

**Q.** And the “effect after one minute incubation” value (Saccharomyces cerevisiae; 10 μg/ml, wild-type and rad9-4)?
**A.** about the maximum effect

**Q.** What about the “killing and "petite" induction vs incubation time before irradiation” value (Saccharomyces cerevisiae; 10 μg/ml, wild-type and rad9-4, constant 365 nm dose) of the same molecule?
**A.** independent of incubation time

**Q.** What about the “uptake and washing out compared with 8-MOP” value (Saccharomyces cerevisiae; Saccharomyces) of the same molecule?
**A.** taken up and washed out as readily as 8-MOP

**Q.** What about the “sensitizing effect after washing” value (Saccharomyces cerevisiae; doses of 365 nm light used) of the same molecule?
**A.** no sensitizing effect after washing

**Q.** And the “erythema or cutaneous inflammation” value (psoriasis lesions)?
**A.** no erythema or cutaneous inflammation

**Q.** What about the “speed of action compared with 8-MOP” value (psoriasis lesions) of the same molecule?
**A.** slower than that of 8-MOP

**Q.** And the “erythema, cutaneous inflammation, tumor” value ([3]; 115 applications on two ears, 30 minutes rest, 10 minutes irradiation)?
**A.** neither erythema nor cutaneous inflammation nor any tumor

**Q.** And the mortality ([3]; 115 applications, 450 days of observation)?
**A.** No animal died

**Q.** And the “macroscopic or microscopic reaction” value ([3]; 450 days of observation)?
**A.** Neither macroscopic nor microscopic reaction was observed

**Q.** What does the source list for `COc1c2occc2cc2ccc(=O)oc12` [Example 8-MOP, 8-methoxypsoralen, reference compound]?
**A.** erythemal reactions in the skin (skin [4]): can cause violent erythemal reactions in the skin; lymphocytes in circulating blood (lymphocytes): causes a decrease of the lymphocytes in circulating blood; tanning effect (skin [5]): strong tanning effect; cancerogenic power in combination with U.V. radiation (mice): high cancerogenic power
